Patent US8242274B2, “Triazolopyridine kinase inhibitors useful for the treatment of degenerative and inflammatory diseases” (Galapagos NV, priority 2008, dated 2012)

Assays:
[1] = target: T1, Recombinant human JAK1 catalytic domain (Homo sapiens, UniProt P23458); assay: JAK1 inhibition assay; assay type: biochemical; conditions: semi-quantitative score
T1 construct: Recombinant human JAK1 catalytic domain (amino acids 850-1154; catalog number 08-144); purchased Carna Biosciences 08-144
Experimental: Recombinant human JAK1 catalytic domain (amino acids 850-1154; catalog number 08-144) was purchased from Carna Biosciences. 10 ng of JAK1 was incubated with 12.5 μg polyGT substrate (Sigma catalog number P0275) in kinase reaction buffer (15 mM Tris-HCl pH 7.5, 1 mM DTT, 0.01% Tween-20, 10 mM MgCl2, 2 μM non-radioactive ATP, 0.25 μCi 33P-gamma-ATP (GE Healthcare, catalog number AH9968) final concentrations) with or without 5 μL containing test compound or vehicle (DMSO, 1% final concentration), in a total volume of 25 μL, in a polypropylene 96-well plate (Greiner, V-bottom). After 45 min at 30° C., reactions were stopped by adding of 25 μL/well of 150 mM phosphoric acid. All of the terminated kinase reaction was transferred to prewashed (75 mM phosphoric acid) 96 well filter plates (Perkin Elmer catalog number 6005177) using a cell harvester (Perkin Elmer). Plates were washed 6 times with 300 μL per well of a 75 mM phosphoric acid solution and the bottom of the plates was sealed. 40 μL/well of Microscint-20 was added, the top of the plates was sealed and readout was performed using the Topcount (Perkin Elmer). Kinase activity was calculated by subtracting counts per minute (cpm) obtained in the presence of a positive control inhibitor (10 μM staurosporine) from cpm obtained in the presence of vehicle. The ability of a test compound to inhibit this activity was determined as: Percentage inhibition=((cpm determined for sample with test compound present−cpm determined for sample with positive control inhibitor)divided by(cpm determined in the presence of vehicle−cpm determined for sample with positive control inhibitor))*100%.
(§1) Dose dilution series were prepared for the compounds enabling the testing of dose-response effects in the JAK1 assay and the calculation of the IC50 for each compound. Each compound was routinely tested at concentration of 20 μM followed by a 1/3 serial dilution, 8 points (20 μM-6.67 μM-2.22 μM-740 nM-247 nM-82 nM-27 nM-9 nM) in a final concentration of 1% DMSO.

[2] = Microsomal stability, human; assay type: in vitro ADME; conditions: human liver microsomes, 3 μM compound, 37° C.
Experimental: (§2) A 10 mM stock solution of compound in DMSO was diluted 1000 fold in a 182 mM phosphate buffer pH 7.4 in a 96 deep well plate (Greiner, Cat no. 780285) and pre-incubated at 37° C.
(§3) 40 μL of deionised water was added to a well of a polypropylene Matrix 2D barcode labelled storage tube (Thermo Scientific) and pre-incubated at 37° C.
(§4) A Glucose-6-phosphate-dehydrogenase (G6PDH) working stock solution was prepared in 182 mM phosphate buffer pH7.4 and placed on ice before use. A co-factor containing MgCl2, glucose-6-phosphate and NADP+ was prepared in deionised water and placed on ice before use.
(§5) A final working solution containing liver microsomes (Xenotech) of a species of interest (human, mouse, rat, dog), previously described G6PDH and co-factors was prepared and this mix was incubated for no longer than 20 minutes at room temperature.
(§6) 30 μL of the pre-heated compound dilution was added to 40 μL of pre-heated water in the Matrix tubes and 30 μL of the microsomal mix was added. Final reaction concentrations were 3 μM compound, 1 mg microsomes, 0.4 U/mL GDPDH, 3.3 mM MgCl2, 3.3 mM glucose-6-phosphate and 1.3 mM NADP+.
(§7) To measure percentage remaining of compound at time zero MeOH or ACN was added (1:1) to the well before adding the microsomal mix. The plates were sealed with Matrix Sepra Seals™ (Matrix, Cat. No. 4464) and shaken for a few seconds ensure complete mixing of all components.
(§8) The samples which were not stopped are incubated at 37° C., 300 rpm and after 1 hour of incubation the reaction was stopped with MeOH or ACN (1:1).
(§9) After stopping the reaction the samples were mixed and placed on ice for 30 min to precipitate the proteins. The plates were then centrifuged 30 min at 1200 rcf at 4° C. and the supernatant was transferred to a 96 v-bottom PP plate (Greiner, 651201) for analysis on LCMS.
(§10) These plates were sealed with sealing mats (MA96RD-04S) of www.kinesis.co.uk and samples were measured at room temperature on LCMS (ZQ 1525 from Waters) under optimized conditions using Quanoptimize to determine the appropriate mass of the parent molecule.
(§11) The samples were analyzed on LCMS with a flow rate of 1 mL/min. Solvent A was 15 mM ammonia and solvent B was methanol or acetonitrile, depending on the stop solution used. The samples were run under positive ion spray on an XBridge C18 […] (2.1×30 mm) column, from Waters.
(§12) Peak area from the parent compound at time 0 was considered to be 100% remaining. The percentage remaining after 1 hour incubation was calculated from time 0 and was calculated as the percentage remaining. The solubility of the compound in the final test concentration in buffer is inspected by microscope and results are reported.
(§13) The data on microsomal stability are expressed as a percentage of the total amount of compound remaining after 60 minutes.

[3] = Microsomal stability, rat; assay type: in vitro ADME; conditions: rat liver microsomes, 3 μM compound, 37° C.
Experimental: as §2, §3, §4, §5, §6, §7, §8, §9, §10, §11, §12, §13

[4] = Caco2 permeability, bi-directional; assay type: in vitro ADME; conditions: human, Caco-2; 10 μM, 1 hour, pH 7.4
Experimental: Bi-directional Caco-2 assays were performed as described below. Caco-2 cells were obtained from European Collection of Cell Cultures (ECACC, cat 86010202) and used after a 21 day cell culture in 24-well Transwell plates (Fisher TKT-545-020B).
2×10^5 cells/well were seeded in plating medium consisting of DMEM+GlutaMAXI+1% NEAA+10% FBS (FetalClone II)+1% Pen/Strep. The medium was changed every 2-3 days.
Test and reference compounds (propranolol and rhodamine 123 or vinblastine, all purchased from Sigma) were prepared in Hanks' Balanced Salt Solution containing 25 mM HEPES (pH 7.4) and added to either the apical (125 μL) or basolateral (600 μL) chambers of the Transwell plate assembly at a concentration of 10 μM with a final DMSO concentration of 0.25%.
50 μM Lucifer Yellow (Sigma) was added to the donor buffer in all wells to assess integrity of the cell layers by monitoring Lucifer Yellow permeation. As Lucifer Yellow (LY) cannot freely permeate lipophilic barriers, a high degree of LY transport indicates poor integrity of the cell layer.
After a 1 hour incubation at 37° C. while shaking at an orbital shaker at 150 rpm, 70 μL aliquots were taken from both apical (A) and basal (B) chambers and added to 100 μLl 50:50 acetonitrile:water solution containing analytical internal standard (0.5 μM carbamazepine) in a 96 well plate.
Lucifer yellow was measured with a Spectramax Gemini XS (Ex 426 nm and Em 538 nm) in a clean 96 well plate containing 150 μL of liquid from basolateral and apical side.
Concentrations of compound in the samples were measured by high performance liquid-chromatography/mass spectroscopy (LC-MS/MS).
The Efflux ratios, as an indication of active efflux from the apical cell surface, were calculated using the ratio of PappB>A/PappA>B.

[5] = test system: MMP13; assay: OSM/IL-1β signaling assay (SW1353 cells); assay type: cell-based; conditions: Homo sapiens, 25 ng/mL OSM and 1 ng/mL IL-1β, 48 hours
Experimental: The cells were seeded in 96 well plates at 15,000 cells/well in a volume of 120 μL DMEM (Invitrogen) containing 10% (v/v) FBS and 1% penicillin/streptomycin (InVitrogen) incubated at 37° C. 5% CO2. Cells were preincubated with 15 μL compound in M199 medium with 2% DMSO 1 hr before triggering with 15 μL OSM and IL-1β to reach 25 ng/mL OSM and 1 ng/mL IL-1β, and MMP13 levels were measured in conditioned medium 48 hours after triggering. MMP13 activity was measured using an antibody capture activity assay. For this purpose, 384 well plates (NUNC, 460518, MaxiSorb black) were coated with 35 μL of a 1.5 μg/mL anti-human MMP13 antibody (R&D Systems, MAB511) solution for 24 hours at 4° C. After washing the wells 2 times with PBS+0.05% Tween, the remaining binding sites were blocked with 100 μL 5% non-fat dry milk (Santa Cruz, sc-2325, Blotto) in PBS for 24 hours at 4° C. […] Next the wells were washed twice with PBS+0.05% Tween followed by MMP13 activation by addition of 35 μL of a 1.5 mM 4-Aminophenylmercuric acetate (APMA) (Sigma, A9563) solution and incubation at 37° C. for 1 hour. […] After incubation for 24 hours at 37° C. fluorescence of the converted substrate was measured in a Perkin Elmer Wallac EnVision 2102 Multilabel Reader (wavelength excitation: 320 nm, wavelength emission: 405 nm).

[6] = target: T2, Recombinant human JAK2 catalytic domain (Homo sapiens, UniProt O60674); assay: JAK2 inhibition assay; assay type: biochemical; conditions: semi-quantitative score
T2 construct: Recombinant human JAK2 catalytic domain (amino acids 808-1132; catalog number PV4210); purchased Invitrogen PV4210
Experimental: Recombinant human JAK2 catalytic domain (amino acids 808-1132; catalog number PV4210) was purchased from Invitrogen. 0.025 mU of JAK2 was incubated with 2.5 μg polyGT substrate (Sigma catalog number P0275) in kinase reaction buffer (5 mM MOPS pH 7.5, 9 mM MgAc, 0.3 mM EDTA, 0.06% Brij and 0.6 mM DTT, 1 μM non-radioactive ATP, 0.25 μCi 33P-gamma-ATP (GE Healthcare, catalog number AH9968) final concentrations) with or without 5 μL containing test compound or vehicle (DMSO, 1% final concentration), in a total volume of 25 μL, in a polypropylene 96-well plate (Greiner, V-bottom). After 90 min at 30° C., reactions were stopped by adding of 25 μL/well of 150 mM phosphoric acid. All of the terminated kinase reaction was transferred to prewashed (75 mM phosphoric acid) 96 well filter plates (Perkin Elmer catalog number 6005177) using a cell harvester (Perkin Elmer). Plates were washed 6 times with 300 μL per well of a 75 mM phosphoric acid solution and the bottom of the plates was sealed. 40 μL/well of Microscint-20 was added, the top of the plates was sealed and readout was performed using the Topcount (Perkin Elmer). Kinase activity was calculated by subtracting counts per minute (cpm) obtained in the presence of a positive control inhibitor (10 μM staurosporine) from cpm obtained in the presence of vehicle. The ability of a test compound to inhibit this activity was determined as: Percentage inhibition=((cpm determined for sample with test compound present−cpm determined for sample with positive control inhibitor) divided by (cpm determined in the presence of vehicle−cpm determined for sample with positive control inhibitor))*100%.
as §1, with “JAK2” for “JAK1”

[7] = test system: TNF release; assay: Septic shock model (LPS); assay type: in vivo, mice; conditions: 3 mg/kg
Experimental: Injection of lipopolysaccharide (LPS) induces a rapid release of soluble tumour necrosis factor (TNF-alpha) into the periphery. This model is used to analyse prospective blockers of TNF release in vivo.
Six BALB/cJ female mice (20 g) per group were treated at the intended dosing once, po. Thirty minutes later, LPS (15 μg/kg; E. Coli serotype 0111:B4) was injected ip. Ninety minutes later, mice were euthanized and blood was collected. Circulating TNF alpha levels were determined using commercially available ELISA kits. Dexamethasone (5 μg/kg) was used as a reference anti-inflammatory compound. Selected compounds are tested at one or multiple doses, e.g. 3 and/or 10 and/or 30 mg/kg, po.

T2 sequence (O60674 808-1132): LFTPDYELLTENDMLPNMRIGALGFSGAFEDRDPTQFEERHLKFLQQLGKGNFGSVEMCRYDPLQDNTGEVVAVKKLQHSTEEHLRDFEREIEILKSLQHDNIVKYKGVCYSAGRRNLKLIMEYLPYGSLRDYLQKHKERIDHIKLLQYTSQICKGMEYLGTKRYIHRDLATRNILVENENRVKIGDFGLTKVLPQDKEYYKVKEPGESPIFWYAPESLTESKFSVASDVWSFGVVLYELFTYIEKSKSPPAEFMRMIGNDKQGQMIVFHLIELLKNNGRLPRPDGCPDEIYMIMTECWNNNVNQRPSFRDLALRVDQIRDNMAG
T1 sequence (P23458 850-1154): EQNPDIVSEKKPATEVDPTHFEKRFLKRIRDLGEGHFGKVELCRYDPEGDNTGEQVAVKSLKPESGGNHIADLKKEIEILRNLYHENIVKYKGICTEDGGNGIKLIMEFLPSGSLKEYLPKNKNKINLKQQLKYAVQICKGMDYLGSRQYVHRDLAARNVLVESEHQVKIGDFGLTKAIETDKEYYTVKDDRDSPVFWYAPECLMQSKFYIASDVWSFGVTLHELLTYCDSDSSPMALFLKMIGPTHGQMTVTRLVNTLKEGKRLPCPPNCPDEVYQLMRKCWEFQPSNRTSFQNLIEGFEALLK

SMILES | IC50 [1] [nM] | Microsomal stability Human (%), compound remaining after 60 minutes [2] [%] | Microsomal stability Rat (%), compound remaining after 60 minutes [3] [%] | Papp A→B at 1 h, 10 μM [4] [×10⁻⁶ cm/s] | EC50 [5] [nM] | IC50 [6] [nM] | activity in the septic shock model [7]
O=C(Nc1nc2cccc(-c3ccc(OCc4ccc(N5CCCC5)nc4)cc3)n2n1)C1CC1 [Compound 174, N-(5-(4-((6-(pyrrolidin-1-yl)pyridin-3-yl)methoxy)phenyl)-[1,2,4]triazolo[1,5-a]pyridin-2-yl)cyclopropanecarboxamide] | > 501 | – | – | – | – | – | –
CC(=O)Nc1nc2cccc(-c3ccc(OCc4ccccc4)cc3)n2n1 [Compound 163, N-(5-(4-(benzyloxy)phenyl)-[1,2,4]triazolo[1,5-a]pyridin-2-yl)acetamide] | 0.1 to 100 | 53.64 | 39.78 | 13.4 | – | – | –
NC(=O)c1ccc(COc2ccc(-c3cccc4nc(NC(=O)C5CC5)nn34)cc2)cn1 [Compound 192, 5-{4-[2-(Cyclopropanecarbonyl-amino)-[1,2,4]triazolo[1,5-a]pyridin-5-yl]-phenoxymethyl}-pyridine-2-carboxylic acid amide] | 0.1 to 100 | 127.2 | 77.62 | 12.5 | > 1000 | – | –
O=C(Nc1nc2cccc(-c3ccc(NCc4cccnc4)cc3)n2n1)C1CC1 [Compound 182, N-(5-(4-(pyridin-3-ylmethylamino)phenyl)-[1,2,4]triazolo[1,5-a]pyridin-2-yl)cyclopropanecarboxamide] | 0.1 to 100 | 19.33 | 19.23 | – | – | – | –
O=C(Nc1nc2cccc(-c3ccc(OCc4ccccc4)c(F)c3)n2n1)C1CC1 [Compound 15, N-(5-(4-(benzyloxy)-3-fluorophenyl)-[1,2,4]triazolo[1,5-a]pyridin-2-yl)cyclopropanecarboxamide] | 0.1 to 100 | 43 | 14 | 25.8 | – | – | –
Cc1ccc(COc2ccc(-c3cccc4nc(NC(=O)C5CC5)nn34)cc2)cn1 [Compound 197, Cyclopropanecarboxylic acid {5-[4-(6-methyl-pyridin-3-ylmethoxy)-phenyl]-[1,2,4]triazolo[1,5-a]pyridin-2-yl}-amide] | 0.1 to 100 | 46.6 | 59.41 | – | – | 1 to 100 | active
O=C(Nc1nc2cccc(-c3cccc(OCc4ccccc4)c3)n2n1)C1CC1 [Compound 14, N-(5-(3-(benzyloxy)phenyl)-[1,2,4]triazolo[1,5-a]pyridin-2-yl)cyclopropanecarboxamide] | – | – | – | – | – | > 501 | –
COC(=O)c1ccc(COc2ccc(-c3cccc4nc(NC(=O)C5CC5)nn34)cc2)nc1 [Compound 190] | 0.1 to 100 | 2.13 | 25.64 | – | – | – | –
O=C(Nc1nc2cccc(-c3ccc(OCc4ccc(Cl)nc4)cc3)n2n1)C1CC1 [Compound 198, Cyclopropanecarboxylic acid {5-[4-(6-chloro-pyridin-3-ylmethoxy)-phenyl]-[1,2,4]triazolo[1,5-a]pyridin-2-yl}-amide] | 0.1 to 100 | 65.8 | 72.45 | – | – | 1 to 100 | –
